From doi:10.1101/2025.09.30.679600, “Expansion of DNA-Encoded Library Hits Using Generative Chemistry and Ultra-Large Compound Catalogs” (bioRxiv, 2025)

Target: T1, 53BP1 tandem Tudor domain (TTD) (Homo sapiens, UniProt Q12888)
T1 construct: DEL screens targeting the tandem Tudor domain (TTD) of 53BP1; made in house
Assay: 53BP1 TR-FRET displacement assay
Assay type: binding
Details: mean ± SD of at least three replicates
Source text: In this work, we test the hypothesis that initializing a structure-based generative AI workflow with validated DEL screening data can rapidly identify novel, potent, and more drug-like compounds from an ultra-large virtual library, outperforming traditional hit-picking strategies. To do so, we present a DEL-driven, integrated virtual screening workflow that combines the HIDDEN GEM platform with the multi-billion-compound Enamine REAL Space (Figure 1). Using data from our recently published DEL screens targeting the tandem Tudor domain (TTD) of 53BP1,[8],[16],[27] we biased our generative structure-guided ML model to identify novel, commercially available compounds from the Enamine REAL Space. All purchased and off-DNA synthesized compounds were experimentally tested using a developed time-resolved fluorescence resonance energy transfer (TR-FRET) displacement assay. This workflow provides a rapid, cost-effective strategy for academic labs and small biotech companies to accelerate hit discovery using focused DEL libraries and to expand beyond the screened chemical space, which is particularly important for smaller-sized DELs.
Reagents, protein expression/purification, DEL production and screening, and TR-FRET screening protocols were previously reported.[16],[27] […]
[Compound], µM [Compound], µM [Compound], µM
[Compound], µM [Compound], µM
Figure S2. 53BP1 TR-FRET displacement assay dose-response curves for compounds identified from
HIDDEN GEM. Each data point represents the mean of three replicates (n=3), with error bars indicating standard
deviation. Dose-response curves were fitted using a four-parameter Hill equation. […]

T1 sequence (Q12888 1484-1603 limits assumed): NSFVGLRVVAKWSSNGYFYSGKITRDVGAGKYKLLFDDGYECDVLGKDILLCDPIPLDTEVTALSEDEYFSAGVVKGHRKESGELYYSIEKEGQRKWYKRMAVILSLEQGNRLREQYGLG

SMILES	IC50 [µM]
COc1ccc(C(CNC2=NS(=O)(=O)c3ccccc32)N2CCCC2)cc1 (centres unmarked) [UNC10413807A]	43 ± 0.44
CCN1CCN(c2ccccc2NC(=O)c2cc(O)c3ccccc3c2)CC1 [UNC10414641A]	58 ± 10
Cc1ccc(C(CNC2=NS(=O)(=O)c3ccccc32)N2CCCC2)cc1 (centres unmarked) [UNC10414645A]	34 ± 3
CN1CCN(c2ccccc2NC(=O)c2cc3ccccc3[nH]2)CC1 [UNC10413788A]	22 ± 3.6
CN1CCC(Nc2ccccc2NC(=O)c2cccc(F)c2)CC1 [UNC10413800A]	54 ± 8.5
